Data taken from patent publication US10532987B2, “Compounds and methods for inducing browning of white adipose tissue” (GUANGZHOU INSTITUTES OF BIOMEDICINE AND HEALTH, CHINESE …, priority 2015, dated 2020).

The compounds below were run on Ucp1 (assay: UCP1 luciferase assay (Ucp1 up-regulation in differentiated inguinal adipocytes of Ucp1-luciferase knock-in mice)). Conditions: Mus musculus, Adipocyte, 48 h; at 0.3 μM; 2 days treatment; luciferase activity; read-out: Ucp1 activation fold/corresponding concentration.
Assay type: cell-based
Protocol: TEST EXAMPLE 1 UCP1 Luciferase Assay
Evaluating Compounds that Induce Ucp1 Up-Regulation
Ucp1-luciferase knock-in mice will be housed in cages and fed on standard chow diets (the detailed procedures please see reference 14). The 8-week-old mice will be killed by the cervical dislocation and put into 75% alcohol for 5 minutes. The inguinal adipose tissue will be dissected out and transferred to the three 10-cm petri dishes and washed with PBS for three times. The adipose tissue will be dissected and minced on a 10-cm petri dish for several minutes and then pipetted into 20 ml 0.1% collagenase solution in 50 ml conical tubes and digested at 37° C. for 1 hour. Next, 20 ml culture medium will be added to terminate the digestion and centrifuged for 10 minutes at 1000 rpm respectively. The supernatants will be removed and the pellets re-suspended in 10 mL culture medium and plated into 10-cm plates. The cells will be left to adhere to the plates overnight and the culture medium will be changed every other day. The confluent cells will be trypsinized, counted and plated to 24-well plate (5×10^4 cells/well). The cells will be washed and re-fed the next day (as day −2). Two days later (day 0), the cells will usually become confluent and be induced to differentiate with MDIR medium. On day 2, the medium will be changed to IR medium and re-fed every 2 days. Complete differentiation is usually achieved by day 10. On day 10, the medium will be changed to the culture medium of 10% FBS/DMEM with indicated drugs along with the positive and negative controls for 2 days. The media will be removed and the cells washed with 1 ml PBS per well three times. Then 100 μl lysis buffer will be used to lyse the cells at 4° C. for 1 hour. 30 μl culture medium, 30 μl cell lysates and 60 μl Steady-Glo® Reagent were added to a well of 96-well-plate and the luminescence will be measured using a luminometer. The protein concentration will be determined using 20 μl cell lysates and specific activity of luciferase will be tabulated and data analyzed.
In the case of `COc1ccc(-c2csc(NC(=O)[C@@H]3CCCN3)n2)cc1OC` [Compound 70, (S)—N-(4-(3,4-dimethoxyphenyl)thiazol-2-yl)pyrrolidine-2-carboxamide], the fold induction at 0.3 µM is reported as 1.7.
In the case of `CCOC(=O)N1CCC[C@H]1C(=O)Nc1nc(-c2ccc(OC)c(OC)c2)cs1` [Compound 71, (S)-ethyl 2-(4-(3,4-dimethoxyphenyl)thiazol-2-ylcarbamoyl)pyrrolidine-1-carboxylate], the fold induction at 0.3 µM is reported as 1.7.

Same assay, conditions: Mus musculus, Adipocyte, 48 h; at 1 μM; 2 days treatment; luciferase activity; read-out: Ucp1 activation fold/corresponding concentration
Compound `N#Cc1ccc(-c2csc(Nc3ccccn3)n2)cc1` [Compound 49, 4-(2-(pyridin-2-ylamino)thiazol-4-yl)benzonitrile] has a fold induction at 1 µM of 3.9.
`CS(=O)(=O)c1ccc(-c2csc(Nc3ccccn3)n2)cc1` [Compound 51, 4-(4-(methylsulfonyl)phenyl)-N-(pyridin-2-yl)thiazol-2-amine] gave a fold induction at 1 µM of 3.9.
`O=C(c1ccc(-c2csc(Nc3ccccn3)n2)cc1)N1CCOCC1` [Compound 52, morpholino(4-(2-(pyridin-2-ylamino)thiazol-4-yl)phenyl)methanone] showed a fold induction at 1 µM of 5.1.
`CCNC(=O)c1ccc(-c2csc(Nc3ccccn3)n2)cc1` [Compound 53, N-ethyl-4-(2-(pyridin-2-ylamino)thiazol-4-yl)benzamide] was tested, and the fold induction at 1 µM was 3.
`c1ccc(Nc2nc(-c3ccc(CN4CCOCC4)cc3)cs2)nc1` [Compound 54, 4-(4-(morpholinomethyl)phenyl)-N-(pyridin-2-yl)thiazol-2-amine] gave a fold induction at 1 µM of 3.9.
`CN1CCN(C(=O)c2ccc(-c3csc(Nc4ccccn4)n3)cc2)CC1` [Compound 59, (4-methylpiperazin-1-yl)(4-(2-(pyridin-2-ylamino)thiazol-4-yl)phenyl)methanone] gave a fold induction at 1 µM of 4.
In the case of `O=C(Nc1cccnc1)c1ccc(-c2csc(Nc3ccccn3)n2)cc1` [Compound 64, 4-(2-(pyridin-2-ylamino)thiazol-4-yl)-N-(pyridin-3-yl)benzamide], the fold induction at 1 µM is reported as 1.1.
Work on `C#Cc1ccc(-c2csc(Nc3ccccn3)n2)cc1` [Compound 78, 4-(4-ethynylphenyl)-N-(pyridin-2-yl)thiazol-2-amine] yielded a fold induction at 1 µM of 2.3.
`c1ccc(Nc2nc(-c3ccc4c(c3)CCC4)cs2)nc1` [Compound 81, 4-(2,3-dihydro-1H-inden-5-yl)-N-(pyridin-2-yl)thiazol-2-amine] was tested, and the fold induction at 1 µM was 2.
Work on `c1ccc(Nc2nc(-c3ccc4c(c3)OCO4)cs2)nc1` [Compound 82, 4-(benzo[d][1,3]dioxol-5-yl)-N-(pyridin-2-yl)thiazol-2-amine] yielded a fold induction at 1 µM of 2.4.

Same assay, conditions: Mus musculus, Adipocyte, 48 h; at 3 μM; 2 days treatment; luciferase activity; read-out: Ucp1 activation fold/corresponding concentration
Compound `c1ccc(-c2ccc(-c3csc(Nc4ccccn4)n3)cc2)cc1` [Compound 50, 4-(biphenyl-4-yl)-N-(pyridin-2-yl)thiazol-2-amine] has a fold induction at 3 µM of 2.4.
With `c1ccc(CNc2ccc(-c3csc(Nc4ccccn4)n3)cc2)cc1` [Compound 55, 4-(4-(benzylamino)phenyl)-N-(pyridin-2-yl)thiazol-2-amine] the fold induction at 3 µM was 2.
`CC(C)(C)CNc1ccc(-c2csc(Nc3ccccn3)n2)cc1` [Compound 56, 4-(4-(neopentylamino)phenyl)-N-(pyridin-2-yl)thiazol-2-amine] gave a fold induction at 3 µM of 2.3.
With `CC(C)NC(=O)c1ccc(-c2csc(Nc3ccccn3)n2)cc1` [Compound 57, N-isopropyl-4-(2-(pyridin-2-ylamino)thiazol-4-yl)benzamide] the fold induction at 3 µM was 3.5.
Work on `O=C(Nc1ccccc1)c1ccc(-c2csc(Nc3ccccn3)n2)cc1` [Compound 58, N-phenyl-4-(2-(pyridin-2-ylamino)thiazol-4-yl)benzamide] yielded a fold induction at 3 µM of 1.4.
With `CC(=O)OCc1ccc(-c2csc(Nc3ccccn3)n2)cc1` [Compound 60, 4-(2-(pyridin-2-ylamino)thiazol-4-yl)benzyl acetate] the fold induction at 3 µM was 2.6.
In the case of `CC(=O)N1CCC(c2ccc(-c3csc(Nc4ccccn4)n3)cc2)CC1` [Compound 61, 1-(4-(4-(2-(pyridin-2-ylamino)thiazol-4-yl)phenyl)piperidin-1-yl)ethanone], the fold induction at 3 µM is reported as 3.2.
Compound `COCCOCCNC(=O)c1ccc(-c2csc(Nc3ccccn3)n2)cc1` [Compound 62, N-(2-(2-methoxyethoxy)ethyl)-4-(2-(pyridin-2-ylamino)thiazol-4-yl)benzamide] has a fold induction at 3 µM of 2.2.
`Clc1ccc(-c2csc(Nc3ccccn3)n2)cc1` [Compound 63, 4-(4-chlorophenyl)-N-(pyridin-2-yl)thiazol-2-amine] gave a fold induction at 3 µM of 5.9.
With `O=C(Nc1ccncc1)c1ccc(-c2csc(Nc3ccccn3)n2)cc1` [Compound 65, 4-(2-(pyridin-2-ylamino)thiazol-4-yl)-N-(pyridin-4-yl)benzamide] the fold induction at 3 µM was 1.1.
For `CCN(CC)C(=O)c1ccc(-c2csc(Nc3ccccn3)n2)cc1` [Compound 66, N,N-diethyl-4-(2-(pyridin-2-ylamino)thiazol-4-yl)benzamide], the fold induction at 3 µM was 1.
`CCOC(=O)[C@@H]1CCCN1C(=O)c1ccc(-c2csc(Nc3ccccn3)n2)cc1` [Compound 67, (S)-ethyl 1-(4-(2-(pyridin-2-ylamino)thiazol-4-yl)benzoyl)pyrrolidine-2-carboxylate] gave a fold induction at 3 µM of 3.1.
With `O=C(Nc1ccc(Cl)cc1)c1csc(Nc2ccccn2)n1` [Compound 68, N-(4-chlorophenyl)-2-(pyridin-2-ylamino)thiazole-4-carboxamide] the fold induction at 3 µM was 1.3.
Work on `O=C(Nc1ccccn1)c1ccc(-c2csc(Nc3ccccn3)n2)cc1` [Compound 69, N-(pyridin-2-yl)-4-(2-(pyridin-2-ylamino)thiazol-4-yl)benzamide] yielded a fold induction at 3 µM of 4.6.
`c1ccc(Nc2nc(-c3ccc(CN4CCCCC4)cc3)cs2)nc1` [Compound 72, 4-(4-(piperidin-1-ylmethyl)phenyl)-N-(pyridin-2-yl)thiazol-2-amine] was tested, and the fold induction at 3 µM was 1.8.
`CC(=O)c1ccc(-c2csc(Nc3ccccn3)n2)cc1` [Compound 73, 1-(4-(2-(pyridin-2-ylamino)thiazol-4-yl)phenyl)ethanone] showed a fold induction at 3 µM of 1.2.
`O=C(NO)c1ccc(-c2csc(Nc3ccccn3)n2)cc1` [Compound 74, N-hydroxy-4-(2-(pyridin-2-ylamino)thiazol-4-yl)benzamide] showed a fold induction at 3 µM of 3.
For `Clc1cccc(-c2csc(Nc3ccccn3)n2)c1Cl` [Compound 75, 4-(2,3-dichlorophenyl)-N-(pyridin-2-yl)thiazol-2-amine], the fold induction at 3 µM was 1.1.
Work on `c1ccc(Nc2nc(-c3ccc(-c4ccsc4)cc3)cs2)nc1` [Compound 76, N-(pyridin-2-yl)-4-(4-(thiophen-3-yl)phenyl)thiazol-2-amine] yielded a fold induction at 3 µM of 1.8.
`c1ccc(Nc2nc(-c3ccc(-c4nn[nH]n4)cc3)cs2)nc1` [Compound 77, 4-(4-(2H-tetrazol-5-yl)phenyl)-N-(pyridin-2-yl)thiazol-2-amine] was tested, and the fold induction at 3 µM was 1.1.
With `c1ccc(Nc2nc(-c3ccc(-c4ccncc4)cc3)cs2)nc1` [Compound 79, N-(pyridin-2-yl)-4-(4-(pyridin-4-yl)phenyl)thiazol-2-amine] the fold induction at 3 µM was 1.8.
`Cc1ccc(-c2csc(Nc3ccccn3)n2)cc1C` [Compound 80, 4-(3,4-dimethylphenyl)-N-(pyridin-2-yl)thiazol-2-amine] was tested, and the fold induction at 3 µM was 1.5.
Work on `Cc1cc(-c2csc(Nc3ccccn3)n2)ccc1N` [Compound 83, 4-(4-amino-3-methylphenyl)-N-(pyridin-2-yl)thiazol-2-amine] yielded a fold induction at 3 µM of 6.
